Tested on: mock transformed CHO cells
Test: cAMP assay in mock transformed CHO cells
Format: cell-based
Conditions: CHO transformants with the plasmid vector without cDNA insert; forskolin 10 μM, porcine galanin 0.1 μM; 37° C. for 30 min
Method: (§1) CHO-MGR20 or mock transformed CHO cells were incubated with forskolin (10 μM) and porcine galanin (0.1 μM) at 37° C. for 30 min. The reaction was terminated by extracting the cells with ice-cold ethanol. The amounts of intracellular cAMP were quantitated by EIA. Values indicated are mean±S.E.M. in triplicate assays.
The CHO cells were seeded at 2.0×10^5 cells/well in 24-well tissue culture plates and cultured for two days. The cells were washed two times with HBSS containing 0.1% BSA and 1 mM IBMX, and then the same buffer with experimental agents were added to the wells. After incubation at 37° C. for 30 min, the media were discarded and intracellular cAMP was extracted with ice-cold ethanol. The aliquots of extracts were evaporated and the amounts of cAMP were quantitated by a cAMP EIA system (Amersham) as described by the manufacturer.
as §1, with “Galanin receptor-mediated inhibition of forskolin-stimulated cAMP production was observed. CHO-MGR20” for “CHO-MGR20”

With Porcine Galanin the “forskolin-stimulated cAMP accumulation” value was “not inhibited”.

Reference: patent publication US6399325B1, “DNA encoding a galanin receptor” (priority 1994, dated 2002)
